From PubChem BioAssay (NCI)
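Briefly, cells in 96-well plates were exposed to five compound concentrations for 48 h, and endpoints were estimated by linear interpolation. GI50: concentration for 50% inhibition of growth. TGI: concentration producing complete growth inhibition.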

What was measured:
Assay in all cases: growth of human tumour cells (NCI), 48 h
T-47D breast = test system: T-47D breast
LOX IMVI melanoma = test system: LOX IMVI melanoma
OVCAR-5 ovarian = test system: OVCAR-5 ovarian
OVCAR-4 ovarian = test system: OVCAR-4 ovarian
SF-295 CNS = test system: SF-295 CNS
HCT-15 colon = test system: HCT-15 colon
SN12C renal = test system: SN12C renal
CAKI-1 renal = test system: CAKI-1 renal
NCI-H23 lung = test system: NCI-H23 lung
TK-10 renal = test system: TK-10 renal
MALME-3M melanoma = test system: MALME-3M melanoma
HS 578T breast = test system: HS 578T breast
PC-3 prostate = test system: PC-3 prostate
SF-268 CNS = test system: SF-268 CNS
SNB-19 CNS = test system: SNB-19 CNS
OVCAR-8 ovarian = test system: OVCAR-8 ovarian
UACC-257 melanoma = test system: UACC-257 melanoma
HCC-2998 colon = test system: HCC-2998 colon
SK-MEL-28 melanoma = test system: SK-MEL-28 melanoma
HOP-92 NSCLC = test system: HOP-92 NSCLC
KM12 colon = test system: KM12 colon
SK-MEL-2 melanoma = test system: SK-MEL-2 melanoma
EKVX NSCLC = test system: EKVX NSCLC
NCI-H522 lung = test system: NCI-H522 lung
DU-145 prostate = test system: DU-145 prostate
MCF7 breast = test system: MCF7 breast
IGROV1 ovarian = test system: IGROV1 ovarian
U251 CNS = test system: U251 CNS
HT29 colon = test system: HT29 colon
CCRF-CEM leukemia = test system: CCRF-CEM leukemia
BT-549 breast = test system: BT-549 breast
NCI-H226 lung = test system: NCI-H226 lung
HL-60(TB) leukemia = test system: HL-60(TB) leukemia
SF-539 CNS = test system: SF-539 CNS
ACHN renal = test system: ACHN renal
SNB-75 CNS = test system: SNB-75 CNS
A498 renal = test system: A498 renal
HOP-62 NSCLC = test system: HOP-62 NSCLC
A549 NSCLC = test system: A549 NSCLC
K-562 leukemia = test system: K-562 leukemia
OVCAR-3 ovarian = test system: OVCAR-3 ovarian
MOLT-4 leukemia = test system: MOLT-4 leukemia
UO-31 renal = test system: UO-31 renal
NCI-H460 lung = test system: NCI-H460 lung
MDA-MB-231 breast = test system: MDA-MB-231 breast
RPMI-8226 leukemia = test system: RPMI-8226 leukemia
RXF 393 renal = test system: RXF 393 renal
SK-OV-3 ovarian = test system: SK-OV-3 ovarian
UACC-62 melanoma = test system: UACC-62 melanoma
SK-MEL-5 melanoma = test system: SK-MEL-5 melanoma
MDA-MB-435 = test system: MDA-MB-435
SW-620 colon = test system: SW-620 colon
HCT-116 colon = test system: HCT-116 colon
M14 melanoma = test system: M14 melanoma
COLO 205 colon = test system: COLO 205 colon

NCCOc1ncccc1/C=C1\C2C=CC=CC2C2C=CC(F)=CC12 (stereo not given)
GI50 (T-47D breast): 2070 nM
TGI (T-47D breast): 6150 nM
GI50 (LOX IMVI melanoma): 583 nM
TGI (LOX IMVI melanoma): 1960 nM
GI50 (OVCAR-5 ovarian): 1690 nM
TGI (OVCAR-5 ovarian): 3400 nM
GI50 (OVCAR-4 ovarian): 2700 nM
TGI (OVCAR-4 ovarian): 10100 nM
GI50 (SF-295 CNS): 467 nM
TGI (SF-295 CNS): 1810 nM
GI50 (HCT-15 colon): 757 nM
TGI (HCT-15 colon): 2280 nM
GI50 (SN12C renal): 333 nM
TGI (SN12C renal): 1350 nM
GI50 (CAKI-1 renal): 429 nM
TGI (CAKI-1 renal): 1870 nM
GI50 (NCI-H23 lung): 666 nM
TGI (NCI-H23 lung): 3010 nM
GI50 (TK-10 renal): 1960 nM
TGI (TK-10 renal): 4310 nM
GI50 (MALME-3M melanoma): 1420 nM
TGI (MALME-3M melanoma): 3170 nM
GI50 (HS 578T breast): 2550 nM
TGI (HS 578T breast): 13100 nM
GI50 (PC-3 prostate): 1150 nM
TGI (PC-3 prostate): 2450 nM
GI50 (SF-268 CNS): 1410 nM
TGI (SF-268 CNS): 11000 nM
GI50 (SNB-19 CNS): 816 nM
TGI (SNB-19 CNS): 14100 nM
GI50 (OVCAR-8 ovarian): 1190 nM
TGI (OVCAR-8 ovarian): 3480 nM
GI50 (UACC-257 melanoma): 1760 nM
TGI (UACC-257 melanoma): 3860 nM
GI50 (HCC-2998 colon): 1250 nM
TGI (HCC-2998 colon): 2570 nM
GI50 (SK-MEL-28 melanoma): 1510 nM
TGI (SK-MEL-28 melanoma): 2900 nM
GI50 (HOP-92 NSCLC): 258 nM
TGI (HOP-92 NSCLC): 2190 nM
GI50 (KM12 colon): 1470 nM
TGI (KM12 colon): 2970 nM
GI50 (SK-MEL-2 melanoma): 2030 nM
TGI (SK-MEL-2 melanoma): 4360 nM
GI50 (EKVX NSCLC): 1200 nM
TGI (EKVX NSCLC): 3050 nM
GI50 (NCI-H522 lung): 1690 nM
TGI (NCI-H522 lung): 4090 nM
GI50 (DU-145 prostate): 531 nM
TGI (DU-145 prostate): 1990 nM
GI50 (MCF7 breast): 394 nM
TGI (MCF7 breast): 1730 nM
GI50 (IGROV1 ovarian): 1160 nM
TGI (IGROV1 ovarian): 2470 nM
GI50 (U251 CNS): 622 nM
TGI (U251 CNS): 2060 nM
GI50 (HT29 colon): 1450 nM
TGI (HT29 colon): 3290 nM
GI50 (CCRF-CEM leukemia): 260 nM
TGI (CCRF-CEM leukemia): 5080 nM
GI50 (BT-549 breast): 2640 nM
TGI (BT-549 breast): 10800 nM
GI50 (NCI-H226 lung): 1020 nM
TGI (NCI-H226 lung): 2470 nM
GI50 (HL-60(TB) leukemia): 334 nM
TGI (HL-60(TB) leukemia): 1420 nM
GI50 (SF-539 CNS): 1310 nM
TGI (SF-539 CNS): 2610 nM
GI50 (ACHN renal): 347 nM
TGI (ACHN renal): 1400 nM
GI50 (SNB-75 CNS): 1500 nM
TGI (SNB-75 CNS): 5670 nM
GI50 (A498 renal): 1530 nM
TGI (A498 renal): 3490 nM
GI50 (HOP-62 NSCLC): 1060 nM
TGI (HOP-62 NSCLC): 2680 nM
GI50 (A549 NSCLC): 268 nM
TGI (A549 NSCLC): 2040 nM
GI50 (K-562 leukemia): 1010 nM
TGI (K-562 leukemia): 3130 nM
GI50 (OVCAR-3 ovarian): 1450 nM
TGI (OVCAR-3 ovarian): 2770 nM
GI50 (MOLT-4 leukemia): 232 nM
TGI (MOLT-4 leukemia): 1100 nM
GI50 (UO-31 renal): 1310 nM
TGI (UO-31 renal): 3060 nM
GI50 (NCI-H460 lung): 283 nM
TGI (NCI-H460 lung): 1460 nM
GI50 (MDA-MB-231 breast): 1640 nM
TGI (MDA-MB-231 breast): 3260 nM
GI50 (RPMI-8226 leukemia): 1580 nM
TGI (RPMI-8226 leukemia): 3850 nM
GI50 (RXF 393 renal): 1570 nM
TGI (RXF 393 renal): 3170 nM
GI50 (SK-OV-3 ovarian): 735 nM
TGI (SK-OV-3 ovarian): 2330 nM
GI50 (UACC-62 melanoma): 1360 nM
TGI (UACC-62 melanoma): 2880 nM
GI50 (SK-MEL-5 melanoma): 1470 nM
TGI (SK-MEL-5 melanoma): 2790 nM
GI50 (MDA-MB-435): 1810 nM
TGI (MDA-MB-435): 3350 nM
GI50 (SW-620 colon): 1070 nM
TGI (SW-620 colon): 2660 nM
GI50 (HCT-116 colon): 1130 nM
TGI (HCT-116 colon): 2600 nM
GI50 (M14 melanoma): 1350 nM
TGI (M14 melanoma): 3050 nM
GI50 (COLO 205 colon): 1110 nM
TGI (COLO 205 colon): 2630 nM
